Values quoted from earlier work in patent US20260242330A1, “USE OF AN AMANTADINE MONONITRATE COMPOUND IN MANUFACTURE OF A MEDICAMENT FOR THE PREVENTION AND TREATMENT OF HYPERTENSION” (GUANGZHOU MAGPIE PHARMACEUTICALS CO., LTD., priority 2022, published 2026).

tested on: 24-hour blood pressure in primary hypertension; conditions: cited from earlier work

First: CCCCC(=O)N(Cc1ccc(-c2ccccc2-c2nnn[nH]2)cc1)[C@H](C(=O)O)C(C)C [valsartan]
Second: CCOC(=O)[C@H](CCc1ccccc1)N[C@H]1CCc2ccccc2N(CC(=O)O)C1=O [benazepril]
The “average 24-hour dynamic diastolic pressure decrease” value of the first is higher: 6.04 mmHg for the first, 3.33 mmHg for the second.

Compared with `COCCc1ccc(OCC(O)CNC(C)C)cc1` (centres unmarked) [metoprolol], `Cc1cccc(Nc2ccncc2S(=O)(=O)NC(=O)NC(C)C)c1` [tolasemide] is lower in “average 24-hour dynamic diastolic pressure decrease” value: 4.6 mmHg for the first, 2.42 mmHg for the second.

Compared with `CCCCC(=O)N(Cc1ccc(-c2ccccc2-c2nnn[nH]2)cc1)[C@H](C(=O)O)C(C)C` [valsartan], `CCOC(=O)[C@H](CCc1ccccc1)N[C@H]1CCc2ccccc2N(CC(=O)O)C1=O` [benazepril] is lower in “average 24-hour dynamic systolic pressure decrease” value: 8.08 mmHg for the first, 6.74 mmHg for the second.

Compared with `COCCc1ccc(OCC(O)CNC(C)C)cc1` (centres unmarked) [metoprolol], `Cc1cccc(Nc2ccncc2S(=O)(=O)NC(=O)NC(C)C)c1` [tolasemide] is lower in “average 24-hour dynamic systolic pressure decrease” value: 6.66 mmHg for the first, 5.92 mmHg for the second.
